# Active and inactive are the calls of the source. The rule behind the calls is not given here.
# How the values were obtained:
# Enterobacter cloacae [1] = assay: Inhibition of Metallo-beta-lactamase IMP-1 in Enterobacter cloacae clinical isolate assessed as MIC for meropenem antibacterial activity at 32 ug/ml (Rvb =16 ug/ml); conditions: dose 32.0 µg/ml
# Enterobacter cloacae [2] = assay: Inhibition of Metallo-beta-lactamase IMP-1 in Enterobacter cloacae clinical isolate assessed as MIC for meropenem antibacterial activity at 64 ug/ml (Rvb =16 ug/ml); conditions: dose 64.0 µg/ml
# Enterobacter cloacae [3] = assay: Inhibition of Metallo-beta-lactamase IMP-1 in Enterobacter cloacae clinical isolate assessed as MIC for meropenem antibacterial activity at 128 ug/ml (Rvb =16 ug/ml); conditions: dose 128.0 µg/ml
# Klebsiella pneumoniae [4] = assay: Inhibition of Metallo-beta-lactamase IMP-28 in Klebsiella pneumoniae clinical isolate assessed as MIC for meropenem antibacterial activity at 32 ug/ml (reference value: 4 ug/ml); conditions: dose 32.0 µg/ml
# Klebsiella pneumoniae [5] = assay: Inhibition of Metallo-beta-lactamase IMP-28 in Klebsiella pneumoniae clinical isolate assessed as MIC for meropenem antibacterial activity at 64 ug/ml (reference value: 4 ug/ml); conditions: dose 64.0 µg/ml
# Klebsiella pneumoniae [6] = assay: Inhibition of Metallo-beta-lactamase IMP-28 in Klebsiella pneumoniae clinical isolate assessed as MIC for meropenem antibacterial activity at 128 ug/ml (reference value: 4 ug/ml); conditions: dose 128.0 µg/ml
# Escherichia coli [7] = assay: Inhibition of Metallo-beta-lactamase VIM-2 in Escherichia coli clinical isolate assessed as MIC for meropenem antibacterial activity at 32 ug/ml (reference value: 8 ug/ml); conditions: dose 32.0 µg/ml
# Escherichia coli [8] = assay: Inhibition of Metallo-beta-lactamase VIM-2 in Escherichia coli clinical isolate assessed as MIC for meropenem antibacterial activity at 64 ug/ml (reference value: 8 ug/ml); conditions: dose 64.0 µg/ml
# Escherichia coli [9] = assay: Inhibition of Metallo-beta-lactamase VIM-2 in Escherichia coli clinical isolate assessed as MIC for meropenem antibacterial activity at 128 ug/ml (reference value: 8 ug/ml); conditions: dose 128.0 µg/ml
# Escherichia coli [10] = assay: Inhibition of Metallo-beta-lactamase NDM-1 in Escherichia coli clinical isolate assessed as MIC for meropenem antibacterial activity at 32 ug/ml (reference value: 64 ug/ml); conditions: dose 32.0 µg/ml
# Escherichia coli [11] = assay: Inhibition of Metallo-beta-lactamase NDM-1 in Escherichia coli clinical isolate assessed as MIC for meropenem antibacterial activity at 64 ug/ml (reference value: 64 ug/ml); conditions: dose 64.0 µg/ml
# Escherichia coli [12] = assay: Inhibition of Metallo-beta-lactamase NDM-1 in Escherichia coli clinical isolate assessed as MIC for meropenem antibacterial activity at 128 ug/ml (reference value: 64 ug/ml); conditions: dose 128.0 µg/ml
# Enterobacter cloacae [13] = assay: Antibacterial activity against beta-lactamase IMP1 producing Enterobacter cloacae clinical isolate measured upto 128 ug/ml; format: functional, organism-based
# Klebsiella pneumoniae [14] = assay: Antibacterial activity against beta-lactamase IMP-28 producing Klebsiella pneumoniae clinical isolate measured upto 128 ug/ml; format: functional, organism-based
# Escherichia coli [15] = assay: Antibacterial activity against beta-lactamase VIM2 producing Escherichia coli clinical isolate measured upto 128 ug/ml; format: functional, organism-based
# [16] = Inhibition of Enterobacter cloacae IMP-1 using nitrocefin chromogenic substrate measured after 15 to 60 min at 25 degC by microplate reader
# [17] = Inhibition of Klebsiella pneumoniae beta-lactamase IMP-28 using nitrocefin chromogenic substrate measured after 15 to 60 min at 25 degC by microplate reader
# [18] = Inhibition of Escherichia coli beta-lactamase VIM-2 using nitrocefin chromogenic substrate measured after 15 to 60 min at 25 degC by microplate reader
# Klebsiella pneumoniae [19] = assay: Substrate activity at Klebsiella pneumoniae beta-lactamase IMP-28 assessed as compound hydrolysis by measuring Km by Michaelis-Menten analysis
# Klebsiella pneumoniae [20] = assay: Substrate activity at Klebsiella pneumoniae beta-lactamase IMP-28 assessed as compound hydrolysis by measuring Kcat by Michaelis-Menten analysis
# Klebsiella pneumoniae [21] = assay: Substrate activity at Klebsiella pneumoniae beta-lactamase IMP-28 assessed as compound hydrolysis by measuring Kcat/Km by Michaelis-Menten analysis
# Enterobacter cloacae [22] = assay: Inhibition of Metallo-beta-lactamase IMP-1 in Enterobacter cloacae clinical isolate assessed as fold reduction in meropenem MIC at 32 ug/ml; conditions: dose 32.0 µg/ml
# Enterobacter cloacae [23] = assay: Inhibition of Metallo-beta-lactamase IMP-1 in Enterobacter cloacae clinical isolate assessed as fold reduction in meropenem MIC at 64 ug/ml; conditions: dose 64.0 µg/ml
# Enterobacter cloacae [24] = assay: Inhibition of Metallo-beta-lactamase IMP-1 in Enterobacter cloacae clinical isolate assessed as fold reduction in meropenem MIC at 128 ug/ml; conditions: dose 128.0 µg/ml
# Klebsiella pneumoniae [25] = assay: Inhibition of Metallo-beta-lactamase IMP-28 in Klebsiella pneumoniae clinical isolate assessed as fold reduction in meropenem MIC at 32 ug/ml; conditions: dose 32.0 µg/ml
# Klebsiella pneumoniae [26] = assay: Inhibition of Metallo-beta-lactamase IMP-28 in Klebsiella pneumoniae clinical isolate assessed as fold reduction in meropenem MIC at 64 ug/ml; conditions: dose 64.0 µg/ml
# Klebsiella pneumoniae [27] = assay: Inhibition of Metallo-beta-lactamase IMP-28 in Klebsiella pneumoniae clinical isolate assessed as fold reduction in meropenem MIC at 128 ug/ml; conditions: dose 128.0 µg/ml
# Escherichia coli [28] = assay: Inhibition of Metallo-beta-lactamase VIM-2 in Escherichia coli clinical isolate assessed as fold reduction in meropenem MIC at 32 ug/ml; conditions: dose 32.0 µg/ml
# Escherichia coli [29] = assay: Inhibition of Metallo-beta-lactamase VIM-2 in Escherichia coli clinical isolate assessed as fold reduction in meropenem MIC at 64 ug/ml; conditions: dose 64.0 µg/ml
# Escherichia coli [30] = assay: Inhibition of Metallo-beta-lactamase VIM-2 in Escherichia coli clinical isolate assessed as fold reduction in meropenem MIC at 128 ug/ml; conditions: dose 128.0 µg/ml
# Escherichia coli [31] = assay: Inhibition of Metallo-beta-lactamase NDM-1 in Escherichia coli clinical isolate assessed as fold reduction in meropenem MIC at 32 ug/ml; conditions: dose 32.0 µg/ml
# Escherichia coli [32] = assay: Inhibition of Metallo-beta-lactamase NDM-1 in Escherichia coli clinical isolate assessed as fold reduction in meropenem MIC at 64 ug/ml; conditions: dose 64.0 µg/ml
# Escherichia coli [33] = assay: Inhibition of Metallo-beta-lactamase NDM-1 in Escherichia coli clinical isolate assessed as fold reduction in meropenem MIC at 128 ug/ml; conditions: dose 128.0 µg/ml
# Escherichia coli [34] = assay: Antibacterial activity against beta-lactamase NDM1 producing Escherichia coli clinical isolate measured upto 128 ug/ml; format: functional, organism-based
# Enterobacter cloacae [35] = assay: Inhibition of Enterobacter cloacae Metallo-beta-lactamase IMP-1
# Klebsiella pneumoniae [36] = assay: Inhibition of Klebsiella pneumoniae beta Metallo-beta-lactamase IMP-28
# [37] = Binding affinity to Zinc incubated for 2 hrs measured by isothermal titration calorimetric assay
# [38] = Stability of the compound in Muller hinton broth assessed compound remaining measured after 15 hrs by HPLC analysis; format: physicochemical; conditions: Mueller Hinton broth, read-out: Stability
# [39] = Inhibition of Escherichia coli beta-lactamase NDM-1 using nitrocefin chromogenic substrate measured after 15 to 60 min at 25 degC by microplate reader
Structure (SMILES),MIC (Enterobacter cloacae [1]) [µg/mL],MIC (Enterobacter cloacae [2]) [µg/mL],MIC (Enterobacter cloacae [3]) [µg/mL],MIC (Klebsiella pneumoniae [4]) [µg/mL],MIC (Klebsiella pneumoniae [5]) [µg/mL],MIC (Klebsiella pneumoniae [6]) [µg/mL],MIC (Escherichia coli [7]) [µg/mL],MIC (Escherichia coli [8]) [µg/mL],MIC (Escherichia coli [9]) [µg/mL],MIC (Escherichia coli [10]) [µg/mL],MIC (Escherichia coli [11]) [µg/mL],MIC (Escherichia coli [12]) [µg/mL],Activity (Enterobacter cloacae [13]),Activity (Klebsiella pneumoniae [14]),Activity (Escherichia coli [15]),IC50 [16] [µM],IC50 [17] [µM],IC50 [18] [µM],Km (Klebsiella pneumoniae [19]) [µM],kcat (Klebsiella pneumoniae [20]) [s⁻¹],also measured
O=C(Cc1ccccc1)N[C@@H]1C(=O)N2C(C(=O)O)=C(CSCCc3ccccc3)CS[C@H]12,8,8,8,0.5,0.25,0.25,8,4,4,32,16,16,inactive,inactive,inactive,2.2,4.3,49,83.3,6.12,kcat/Km (Klebsiella pneumoniae [21]): 73000 M⁻¹ s⁻¹; fold change (FC) (Enterobacter cloacae [22]): 2; fold change (FC) (Enterobacter cloacae [23]): 2; fold change (FC) (Enterobacter cloacae [24]): 2; fold change (FC) (Klebsiella pneumoniae [25]): 8; fold change (FC) (Klebsiella pneumoniae [26]): 16; fold change (FC) (Klebsiella pneumoniae [27]): 16; fold change (FC) (Escherichia coli [28]): 1; fold change (FC) (Escherichia coli [29]): 2; fold change (FC) (Escherichia coli [30]): 2; fold change (FC) (Escherichia coli [31]): 2; fold change (FC) (Escherichia coli [32]): 4; fold change (FC) (Escherichia coli [33]): 4; Activity (Escherichia coli [34]): inactive
O=C(Cc1ccccc1)N[C@H](C(=O)O)[C@@H]1N=C(C(=O)O)C(CSC(Cc2ccccc2)C(=O)O)CS1 (stereo partly specified),–,–,–,–,–,–,–,–,–,–,–,–,–,–,–,–,–,–,–,–,inhibition (Enterobacter cloacae [35]): Active; inhibition (Klebsiella pneumoniae [36]): Active; Kd [37]: 3.19 µM
O=C(Cc1ccccc1)N[C@@H]1C(=O)N2C(C(=O)O)=C(CS[C@@H](Cc3ccccc3)C(=O)O)CS[C@H]12,8,8,4,1,0.5,0.25,8,8,4,32,32,16,inactive,inactive,inactive,48,30,19,175,41,remaining at 15 h [38]: > 95%; IC50 [39]: 51 µM; kcat/Km (Klebsiella pneumoniae [21]): 234000 M⁻¹ s⁻¹; fold change (FC) (Enterobacter cloacae [22]): 2; fold change (FC) (Enterobacter cloacae [23]): 2; fold change (FC) (Enterobacter cloacae [24]): 4; fold change (FC) (Klebsiella pneumoniae [25]): 4; fold change (FC) (Klebsiella pneumoniae [26]): 8; fold change (FC) (Klebsiella pneumoniae [27]): 16; fold change (FC) (Escherichia coli [28]): 1; fold change (FC) (Escherichia coli [29]): 1; fold change (FC) (Escherichia coli [30]): 2; fold change (FC) (Escherichia coli [31]): 2; fold change (FC) (Escherichia coli [32]): 2; fold change (FC) (Escherichia coli [33]): 4; Activity (Escherichia coli [34]): inactive
O=C(Cc1ccccc1)N[C@H](C(=O)O)[C@@H]1N=C(C(=O)O)C(CSC(C(=O)O)c2ccccc2)CS1 (stereo partly specified),–,–,–,–,–,–,–,–,–,–,–,–,–,–,–,–,–,–,–,–,inhibition (Enterobacter cloacae [35]): Active; inhibition (Klebsiella pneumoniae [36]): Active; Kd [37]: 9.67 µM
